# Measurements from patent US11912970B2, “Universal microfluidic culture system to analyze and control cell dynamics” (The University of Chicago, priority 2017, dated 2024).
# What was measured:
# [1] = test system: Hes5-GFP expression in NSCs; experiment: NSCs Hes5-GFP expression under sequential ligand inputs (permutation test and decision tree analysis); type: cell-based, mouse; conditions: for Hes5 expression relative to control: sequential input
# Description: (§1) Murine hematopoietic stem cells (HSC) are isolated by FACSAria III flow cytometer (BD Biosciences) as Lin−/c-Kit+/Sca-1+/CD48−/CD150+/CD34− (lineage, Lin: CD3e/CD11b/CD19/CD41/B220/Gr-1/Ter-119), which are approximately 50% pure HSCs. Macrophage colony-stimulating factor (M-CSF), a myeloid cytokine released during infection and inflammation, is employed to induce HSCs differentiation. Human CD34+ cells were isolated from mononuclear cells using EasySepTM human CD34 positive selection kit (Stemcell Technologies, Vancouver, BC, Canada). CD34+CD38−CD45RA−CD90+CD49f+ HSCs were sorted using a FACSAria III flow cytometer (BD Biosciences). Pro- and anti-inflammatory cytokines including TNF, IFN[…], IL-6, IP10 and MCP-1 are introduced into the cellular environment as single ligand and in combination. Embryonic NSCs with Hes-GFP and Dcx-RFP reporters were isolated at embryonic day 13.5 from a transgenic mice carrying Hes-GFP and Dcx-RFP using standard protocol (Woo, et al., 2009; Basak, et al., 2007). The resulting primary cells were verified to carry both Hes5-GFP and Dcx-RFP after isolation and allowed to grow for few passages before use in the experiments (Giachino, et al., 2009). NSCs were cultured as neurospheres in culture media (DMEM/F12+Glutamax (Gibco No:31331-028); 10 U/ml penicillin; 10 ug/ml Streptomycin; B27 supplement (1:50); FGF growth factor 0.02 ug/ml). As NSCs are sensitive to environmental variations, cell handling protocol before loading into the chip is examined systematically (including dissociation, FACS sorting, etc.). To obtain the optimal results, NSCs spheres are collected and loaded into the chip 24 hours after fresh dissociation wherein each sphere contains ˜7 to 10 cells. […]
# (§2) For image acquisition, a Nikon Ti-ECLIPSE microscope with an automated translation stage and a digital CMOS camera (ORCA-Flash 4.0, Hamamatsu, Japan) was used. […] Bright field and fluorescence images were acquired and analyzed using a customized MATLAB program (Mathworks, […]). The algorithm extracts single cell traces including position, nuclear and cytoplasm fluorescence level. For example, the 3T3 cell nuclear area in each image is identified via the fluorescent nuclear marker GFP, and then the mean value of the nuclear intensity of the p65-DsRed marker is measured, and plotted as a function of time.
# (§3) To investigate the role of combinatorial or temporal ordering of signals in NSC differentiation, the inventors cultured NSCs under combinatorial and sequential applications of the six regulatory ligands (FIG. 8A, FIGS. 22 and 23). […] The inventors measured the ratio of the ligand-treated cells to untreated control for cell number and Hes5-GFP expression intensity. […] Multiple experiments were repeated resulting in nearly 3000 dynamic cultures analyzed. […]
# NSCs [2] = experiment: NSCs proliferation (cell number) under combinatorial ligand inputs (permutation test and decision tree analysis); type: cell-based, mouse; conditions: ligands in isolation or as a pair (synergy)
# Description: (§4) Murine hematopoietic stem cells (HSC) are isolated by FACSAria III flow cytometer (BD Biosciences) as Lin−/c-Kit+/Sca-1+/CD48−/CD150+/CD34− (lineage, Lin: CD3e/CD11b/CD19/CD41/B220/Gr-1/Ter-119), which are approximately 50% pure HSCs. Macrophage colony-stimulating factor (M-CSF), a myeloid cytokine released during infection and inflammation, is employed to induce HSCs differentiation. Human CD34+ cells were isolated from mononuclear cells using EasySepTM human CD34 positive selection kit (Stemcell Technologies, Vancouver, BC, Canada). CD34+CD38−CD45RA−CD90+CD49f+ HSCs were sorted using a FACSAria III flow cytometer (BD Biosciences). […]
# as §2, with “time. […]” for “time.”
# NSCs [3] = experiment: NSCs cell fate (self-renewal or differentiation) from Hes5 level and cell numbers under sequential stimulation; type: cell-based, mouse; conditions: for cell fate outcome: sequential input
# Description: (§5) Murine hematopoietic stem cells (HSC) are isolated by FACSAria III flow cytometer (BD Biosciences) as Lin−/c-Kit+/Sca-1+/CD48−/CD150+/CD34− (lineage, Lin: CD3e/CD11b/CD19/CD41/B220/Gr-1/Ter-119), which are approximately 50% pure HSCs. Macrophage colony-stimulating factor (M-CSF), a myeloid cytokine released during infection and inflammation, is employed to induce HSCs differentiation. Human CD34+ cells were isolated from mononuclear cells using EasySepTM human CD34 positive selection kit (Stemcell Technologies, Vancouver, BC, Canada). CD34+CD38−CD45RA−CD90+CD49f+ HSCs were sorted using a FACSAria III flow cytometer (BD Biosciences). Pro- and anti-inflammatory cytokines including TNF, IFN[…], IL-6, IP10 and MCP-1 are introduced into the cellular environment as single ligand and in combination. Embryonic NSCs with Hes-GFP and Dcx-RFP reporters were isolated at embryonic day 13.5 from a transgenic mice carrying Hes-GFP and Dcx-RFP using standard protocol (Woo, et al., 2009; Basak, et al., 2007). The resulting primary cells were verified to carry both Hes5-GFP and Dcx-RFP after isolation and allowed to grow for few passages before use in the experiments (Giachino, et al., 2009). NSCs were cultured as neurospheres in culture media (DMEM/F12+Glutamax (Gibco No:31331-028); 10 U/ml penicillin; 10 ug/ml Streptomycin; B27 supplement (1:50); FGF growth factor 0.02 ug/ml). As NSCs are sensitive to environmental variations, cell handling protocol before loading into the chip is examined systematically (including dissociation, FACS sorting, etc.). To obtain the optimal results, NSCs spheres are collected and loaded into the chip 24 hours after fresh dissociation wherein each sphere contains ˜7 to 10 cells. To avoid potential artifacts due to prolonged in vitro culture, only NSCs within 10 passages were used in the study.
# To investigate the role of combinatorial or temporal ordering of signals in NSC differentiation, the inventors cultured NSCs under combinatorial and sequential applications of the six regulatory ligands (FIG. 8A, FIGS. 22 and 23). For each independent NSC culture on the chip, the inventors introduced either one ligand each day (sequential inputs), or a combination of the selected ligands over a six-day period (combinatorial inputs). The inventors measured the ratio of the ligand-treated cells to untreated control for cell number and Hes5-GFP expression intensity. Each chip experiment consisted of 63 combinatorial and 720 sequential stimulation experiments, with duplicates (FIG. 8B). Multiple experiments were repeated resulting in nearly 3000 dynamic cultures analyzed. The inventors subjected all experimental outputs of NSC cell numbers and Hes5 expression to regression and classification tree analyses. […]
# NSCs [4] = experiment: NSCs proliferation (cell number) under sequential ligand inputs (permutation test and decision tree analysis); type: cell-based, mouse; conditions: sequential input
# Description: as §1, §2, §3
# human HSCs = type: cell-based; conditions: TNF with other participating cytokines
# Procedure: FIG. 3C depicts a chart of long-term culture and TNF stimulation of human hematopoietic stem cells (HSCs). Cells were cultured on the microfluidic device in the absence of TNF (control) and 1 ng/ml TNF, for up to 5 days. […] N indicates cell numbers per chamber. […] D represents dynamic cytokine inputs, daily variation between 0.1 and 10 ng/ml.
# Besides being a signaling protein involved in systemic inflammation, TNF-alpha is also widely employed to mimic the post-transplantation signaling environment (Mohabbat, et al., 2012). To mimic clinical hematopoietic stem cell transplantation (HSCT), different doses of TNF-alpha are directed to designated culture chambers housing HSCs by programmed medium exchange procedures. […] In both cases, cells proliferate at a similar, if not higher, rate than those in bulk experiments in traditional culture dishes.
# as §4, with “Canada).” for “Canada). CD34+CD38−CD45RA−CD90+CD49f+ HSCs were sorted using a FACSAria III flow cytometer (BD Biosciences).”
# [5] = test system: Hes5-GFP expression in NSCs; experiment: NSCs Hes5 level with sole presence of one ligand, on-chip culture; type: cell-based, mouse
# Procedure: FIG. 6B depicts a histogram of Hes5-GFP expression in NSCs before (red) and after (black) one week culture with 100 ng/ml PDGF. High levels of Hes5 in NSCs indicate maintenance of stem cell state, while reduced Hes5 indicates progress towards differentiation.
# Murine hematopoietic stem cells (HSC) are isolated by FACSAria III flow cytometer (BD Biosciences) as Lin−/c-Kit+/Sca-1+/CD48−/CD150+/CD34− (lineage, Lin: CD3e/CD11b/CD19/CD41/B220/Gr-1/Ter-119), which are approximately 50% pure HSCs. Macrophage colony-stimulating factor (M-CSF), a myeloid cytokine released during infection and inflammation, is employed to induce HSCs differentiation. […]
# as §2
# [6] = test system: Hes5-GFP expression in NSCs; experiment: NSCs Hes5 expression under combinatorial ligand inputs (permutation test and decision tree analysis); type: cell-based, mouse; conditions: combinatorial input; for Hes5 expression, mean ratio relative to control: decision tree
# Description: as §5
# For image acquisition, a Nikon Ti-ECLIPSE microscope with an automated translation stage and a digital CMOS camera (ORCA-Flash 4.0, Hamamatsu, Japan) was used. The stage and image acquisition was controlled via the NIS Elements software. Bright field and fluorescence images were acquired and analyzed using a customized MATLAB program (Mathworks, […]). The algorithm extracts single cell traces including position, nuclear and cytoplasm fluorescence level. For example, the 3T3 cell nuclear area in each image is identified via the fluorescent nuclear marker GFP, and then the mean value of the nuclear intensity of the p65-DsRed marker is measured, and plotted as a function of time.
# To investigate the role of combinatorial or temporal ordering of signals in NSC differentiation, the inventors cultured NSCs under combinatorial and sequential applications of the six regulatory ligands (FIG. 8A, FIGS. 22 and 23). For each independent NSC culture on the chip, the inventors introduced either one ligand each day (sequential inputs), or a combination of the selected ligands over a six-day period (combinatorial inputs). The inventors measured the ratio of the ligand-treated cells to untreated control for cell number and Hes5-GFP expression intensity. Each chip experiment consisted of 63 combinatorial and 720 sequential stimulation experiments, with duplicates (FIG. 8B). Multiple experiments were repeated resulting in nearly 3000 dynamic cultures analyzed. The inventors subjected all experimental outputs of NSC cell numbers and Hes5 expression to regression and classification tree analyses. NSCs' cellular states were categorized into two groups: differentiation (with decreased Hes5 level and cell numbers) and self-renewal (with increased Hes5 level and cell numbers) (FIG. 8D).
# In this work, the inventors use decision tree analysis to generate descriptive and predictive models which map measurements about cell phenotypic features (i.e., cell count and Hes5-GFP expression) to experimental conditions (i.e., sequential and combinatorial application of six regulatory ligands) (Breiman, 1984). […]
# NF-κB in 3T3 cells = experiment: TNF-alpha induced NF-κB activation in 3T3 fibroblasts on chip; type: cell-based, mouse
# Description: The inventors took advantage of the long-term stable culture capability of the device and extended TNF-alpha induced NF-κB activation study in 3T3 fibroblasts for up to a week. The response of 3T3 cells to TNF-alpha stimulation is characterized by the nuclear translocation of transcription factor NF-κB, and visualized through automated fluorescence imaging (Kellogg, et al., 2015). Both single cells and a population of cells were successfully maintained in the present culture chambers, and were stimulated with series of TNF-alpha concentrations (0.001 to 100 ng/ml), which were simultaneously generated on-chip. […]
# as §2
substance,measurement,setting,value
"EGF: signaling ligand whose receptor is highly expressed during mouse forebrain development (NSYPGCPSSYDGYCLNGGVCMHIESLDSYTCNCVIGYSGDRCQTRDLRWWELR; not fully specified; Epidermal growth factor; UniProt P01132 977-1029, looked up)",Hes5 expression relative to control,[1]; ligand added at day 1,86.8 % of the control
same,increased cell number,NSCs [2],60%
same,Hes5 expression,"NSCs [3]; six-ligand sequence, ligand application moved to day 6",significant reduction in Hes5 expression
same,Hes5 expression and cell numbers,"NSCs [3]; six-ligand sequence, ligand delivered on day 2",high Hes5 expression levels and unchanged cell numbers
same,cell number raised by a factor,"NSCs [4]; CXCL added at day 1, ligand added at day 2",1.19 factor
same,cell number raised by a factor,"NSCs [4]; Jagged added at day 1, ligand added at day 2",1.38 factor
same,effect on cell number,NSCs [4]; ligand added at day 1 alone,does not introduce significant increase of cell number
IFNγ: cytokine combined with TNF on human HSCs,effect on TNF induced cell death,human HSCs,neutralize TNF induced cell death
PDGF,Hes5 expression outcome,"[1]; decision tree, ligand present on the 1st day of culture",high Hes5 expression levels
same,Hes5 expression relative to control,"[1]; DLL added at day 1, ligand applied at day 2",89.2 % of the control level
same,Hes5 expression relative to control,[1]; ligand added at day 1,126.6 % of the control
same,cell fate outcome,"NSCs [3]; DLL in day-1, ligand moved to day-2",promoting differentiation
same,cell fate outcome,NSCs [3]; ligand at day 1,NSCs self-renewal
same,increase of Hes5 level from its initial value,[5],around 25%
same,"Hes5 expression, mean ratio relative to control","[6]; PDGF present, without DLL",1.22
same,"Hes5 expression, mean ratio relative to control","[6]; PDGF present, without DLL, CXCL",1.37
same,"Hes5 expression, mean ratio relative to control","[6]; PDGF present, without DLL, CXCL or EGF",1.56
same,"Hes5 expression, mean ratio relative to control",[6]; ligand present,≥ 1.11
same,increase of Hes5 expression by a factor,[6]; permutation test,1.06 factor
same,Hes5 expression relative to control,"[6]; permutation test, combined with DLL",99.3 % of the control level
same,cell number relative to control,NSCs [4]; ligand added at day 1,85.4 % of the control
TNF-alpha,single cell response to pulse stimulation (NF-κB),"NF-κB in 3T3 cells; 0.1 and 0.2 ng/ml, first pulse, single cell level",all cells respond to the first pulse stimulation
same,cytoplasm NF-κB level,NF-κB in 3T3 cells; prolonged incubation and stimulation for one week,proportional to TNF-alpha concentration
